Like-named read-outs stand apart in the source and are kept apart here.
How the values were obtained:
[1] = test system: patients with hyposmia and hypogeusia; assay: Adverse effects of intranasal theophylline (Example 8); type: in vivo, human; conditions: intranasal theophylline 20 μg/d in each naris, 4 weeks
Protocol: Under each condition, we performed subjective evaluations of taste and smell functions, quantitative measurements of taste (gustometry) and smell (olfactometry), and measurements of serum theophylline level and body weight.
The intranasal administration device was a calibrated 1 mL syringe fitted with a nozzle that fit comfortably into the anterior naris (Wolfe Tory Medical, Inc) and loaded under sterile conditions with 20 μg of theophylline methylpropyl paraben in a 0.4-mL saline solution (Foundation Care). Patients were instructed to direct the spray superiorly into the nasal cavity but not posteriorly into the nasopharynx. This technique was practiced before study initiation with sterile saline.

[2] = test system: patients with hyposmia and hypogeusia
Protocol: Subjective changes in smell and taste function under each study condition were measured by questionnaire before measurements of smell or taste function. Responses were graded on a scale from 0 to 100, with 0 reflecting no subjective response in overall sensory function; 100, return to normal sensory function; and values between 0 and 100 intermediate responses. Overall sensory function was defined as the ability to smell all odors and identify all tastants, although response intensity varied.
In this prior trial, oral theophylline was administered daily in 2 divided doses (at breakfast and lunch) of 200, 400, 600, or 800 mg for 2 to 12 months of treatment. Treatment was divided into 2- to 4-month periods, at which time patients returned to The Clinic for measurements of subjective sensory responses, olfactometry, gustometry, serum theophylline level, and body weight.
Each patient delivered the theophylline dose in each naris once daily throughout the study. Patients underwent evaluation 1, 2, and 4 weeks during drug use with the same measurements used for the oral study.
Values for the oral trial were taken from the last measurements made before discontinuation of oral drug treatment and before initiation of the intranasal trial. […] Values for the intranasal pilot study were taken from measurements obtained after completion of 4 weeks of intranasal treatment.

[3] = test system: patients with hyposmia and hypogeusia; assay: Olfactometry (DT, RT, ME, HR for 4 odors) (Example 8); type: in vivo, human; conditions: intranasal theophylline vs before treatment or after oral theophylline
Source text: (§1) Measurements included determination of detection thresholds (DTs), recognition thresholds (RTs), magnitude estimation (ME), and hedonic response (HR) for 4 odors (e.g., pyridine [dead fish], nitrobenzene [bitter almond], thiophene [petroleum], and amyl acetate [banana oil]) (olfactometry) and for 4 tastants (e.g., sodium chloride [salt], sucrose [sweet], […] [sour], and urea [bitter]) (gustometry).

[4] = test system: patients with hyposmia and hypogeusia; assay: Gustometry (DT, RT, ME, HR for 4 tastants) (Example 8); type: in vivo, human
Source text: as §1

hyposmic patients = assay: Smell acuity in open label trial of inhalable/nasal PDE inhibitor (Examples 3, 4); type: in vivo, human; conditions: nasal theophylline, not more than 500 μg, 1 month
Protocol: Hyposmic patients for whom the etiology of smell loss is not associated with head injury or allergic rhinitis are enrolled in an open label trial of inhalable theophylline. Patients are started at an initial dose of not more than 500 μg formulated as a liquid spray or dry powder to be delivered as a metered dose. Initially only local patients are enrolled so that quicker dose titration is achieved. Groups of 5 patients are started on not more than 500 μg of theophylline and continued for 1 month.
Patients are tested for improvement in smell acuity using the standard forced choice technique using four odors as described in Example 1. Additionally, subjective measurements of smell function are obtained using a scale from 0-100 as described in Example 1. Blood samples are also drawn to ascertain blood theophylline level to gauge its relationship to the expected recovery of smell.
Hyposmic patients for whom the etiology of smell loss is not associated with head injury or allergic rhinitis are enrolled in an open label trial of an inhalable PDE1 inhibitor. […]

cAMP = assay: Parotid saliva cAMP after oral theophylline (Example 2); type: in vivo, human; conditions: for cAMP: parotid saliva
Protocol: Parotid saliva was collected from each patient by application of a Lashley cup over Stensen's duct with lingual stimulation by placement of concentrated lemon juice. Saliva was collected in plastic tubes and stored at −20° C. until assayed. cAMP and cGMP were measured in saliva by a sensitive 96 plate spectrophotometric assay (R&D Systems, Minneapolis, Minn.).
All patients were placed in a fixed design open label clinical trial with treatment with oral theophylline. Treatment consisted of fixed treatment periods of two-eight months with sequential doses of the drug at 200 mg, 400 mg and 600 mg. At termination of each of these intervals, patients returned to study site for reevaluation. At the end of each interval subjective responses to treatment were measured with a modification of the 0-100 scale previously used. Subjective responses to treatment were graded on a sliding scale from −100−0-+100 with patients recording improvement (+0-+100), no improvement (0) or worsening (0-−100) of their overall smell function. If overall smell function improved ≥5% they were considered to improve clinically (1). If smell function improved <5% they were considered not to improve (1). At the end of each interval subjective measurements of smell function, measurements of DT, RT, ME and H and measurements of parotid saliva for levels of cAMP and cGMP were obtained. In addition, blood plasma was obtained by venipuncture, placed in ice into zinc free tubes which contained 100 mg zinc free heparin, centrifuged at 3000 rpm for 10-20 min, the plasma transferred to plastic PCR tubes and stored at −20° C. until assayed. Theophylline was assayed by a fluorescence polarization assay (Abbott, Chicago, Ill.), as previously described.
Data for the cyclic nucleotides from these 31 patients was not analyzed until the entire study of the 312 patients in Example 1 was assembled and analyzed in its entirety. After completion of these analyses, all data for parotid saliva cAMP and cGMP from all patients in whom salivary cAMP and cGMP were obtained were assembled. Levels of salivary cyclic nucleotides varied widely. Initially, without external criteria, there was no way to understand these disparate data. […] In a similar manner, measurements of each patient's plasma theophylline level at each dosage of theophylline (at 200 mg, 400 mg, 600 mg of theophylline) were categorized. The two patient groups were also analyzed post hoc with respect to type of smell loss and etiology of smell loss.

Cn1c(=O)c2[nH]cnc2n(C)c1=O [theophylline]
adverse effects [1]: No adverse effects | earliest time improvement was measured ([2]; intranasal theophylline): 1 week | improvement in taste and smell functions compared with oral treatment ([2]; intranasal theophylline 20 μg/d in each naris, 4 weeks): 2 fold | patients reporting overall improvement in taste and smell functions ([2]; intranasal theophylline 20 μg/d in each naris, 4 weeks, 10 patients): 8 patients | earliest time improvement was measured ([2]; oral theophylline): 2 months | patients reporting overall increased taste and smell function ([2]; oral theophylline 200 to 800 mg/d, 2 to 12 months, 10 patients): 6 patients | DTs and RTs for each odor [3]: lower (more sensitive) | Magnitude estimations for each odor [3]: higher (more intense) | Magnitude estimations for all tastants ([4]; intranasal theophylline vs before any treatment or after oral theophylline): higher (more intense) | DTs and RTs for all tastants ([4]; intranasal theophylline vs before treatment or after oral theophylline): lower (more sensitive) | recovery of smell acuity compared with oral administration (hyposmic patients): at least an equivalent recovery of smell acuity | increase of saliva cAMP levels above baseline (cAMP; oral theophylline 200 mg, improved patients, not significant): 10% | increase of saliva cAMP levels over baseline (cAMP; oral theophylline 400 mg, improved group, not statistically significant): 40% | increase of saliva cAMP levels above initial values (cAMP; oral theophylline 600 mg, improved patients, significant): 67% | cAMP (cAMP; oral theophylline 200 mg, patients with improved smell function (16)): 0.96 ± 0.13 pmol/mL | cAMP (cAMP; oral theophylline 200 mg, patients with unimproved smell function (9)): 0.78 ± 0.26 pmol/mL | cAMP (cAMP; oral theophylline 400 mg, patients with improved smell function (12)): 1.22 ± 0.33 pmol/mL | cAMP (cAMP; oral theophylline 400 mg, patients with unimproved smell function (5)): 0.95 ± 0.26 pmol/mL | cAMP (cAMP; oral theophylline 600 mg, patients with unimproved smell function (9)): 0.56 ± 0.21 pmol/mL

— patent publication US20190030036A1, “PHOSPHODIESTERASE INHIBITOR TREATMENT” (Cyrano Therapeutics, Inc., priority 2013, published 2019)
